According to ChEMBL document CHEMBL1154736, “Increasing selectivity of CC chemokine receptor 8 antagonists by engineering nondesolvation related interactions with the intended and off-target binding sites” (J Med Chem, 2009):

Columns and labels:
[1] = biological target: Voltage-gated inwardly rectifying potassium channel KCNH2 (Homo sapiens, UniProt Q12809, S624A); assay: Inhibition of human recombinant ERG S624A mutant expressed in CHOK1 cells by whole-cell plate-based electrophysiology; conditions: cho-k1
[2] = biological target: Voltage-gated inwardly rectifying potassium channel KCNH2 (Homo sapiens, UniProt Q12809, S624T); assay: Inhibition of human recombinant ERG S624T mutant expressed in CHOK1 cells by whole-cell plate-based electrophysiology; conditions: cho-k1
[3] = biological target: Voltage-gated inwardly rectifying potassium channel KCNH2 (Homo sapiens, UniProt Q12809, Y652A); assay: Inhibition of human recombinant ERG Y652A mutant expressed in CHOK1 cells by whole-cell plate-based electrophysiology; conditions: cho-k1
[4] = biological target: Voltage-gated inwardly rectifying potassium channel KCNH2 (Homo sapiens, UniProt Q12809, Y652F); assay: Inhibition of human recombinant ERG Y652F mutant expressed in CHOK1 cells by whole-cell plate-based electrophysiology; conditions: cho-k1
[5] = biological target: Voltage-gated inwardly rectifying potassium channel KCNH2 (Homo sapiens, UniProt Q12809, F656M); assay: Inhibition of human recombinant ERG F656M mutant expressed in CHOK1 cells by whole-cell plate-based electrophysiology; conditions: cho-k1
[6] = biological target: Voltage-gated inwardly rectifying potassium channel KCNH2 (Homo sapiens, UniProt Q12809, F656T); assay: Inhibition of human recombinant ERG F656T mutant expressed in CHOK1 cells by whole-cell plate-based electrophysiology; conditions: cho-k1
[7] = biological target: Voltage-gated inwardly rectifying potassium channel KCNH2 (Homo sapiens, UniProt Q12809, F656W); assay: Inhibition of human recombinant ERG F656W mutant expressed in CHOK1 cells by whole-cell plate-based electrophysiology; conditions: cho-k1
[8] = biological target: Voltage-gated inwardly rectifying potassium channel KCNH2 (Homo sapiens, UniProt Q12809, T623S); assay: Inhibition of human recombinant ERG T623S mutant expressed in CHOK1 cells by whole-cell plate-based electrophysiology; conditions: cho-k1
[9] = Apparent n-Octanol-water partition coefficient, log D at pH 7.4 by HPLC analysis
[10] = biological target: T1, Voltage-gated inwardly rectifying potassium channel KCNH2 (Homo sapiens, UniProt Q12809); assay: Inhibition of wild type human ERG expressed in CHOK1 cells by whole-cell plate-based electrophysiology
[11] = biological target: C-C chemokine receptor type 8 (Homo sapiens, UniProt P51685); assay: Antagonist activity at human CCR8; format: functional
[12] = biological target: T1, Voltage-gated inwardly rectifying potassium channel KCNH2; assay: Displacement of [3H]dofetilide from human recombinant ERG expressed in HEK293 cells by patch clamp method

Chain of C-C chemokine receptor type 8 (P51685 whole entry): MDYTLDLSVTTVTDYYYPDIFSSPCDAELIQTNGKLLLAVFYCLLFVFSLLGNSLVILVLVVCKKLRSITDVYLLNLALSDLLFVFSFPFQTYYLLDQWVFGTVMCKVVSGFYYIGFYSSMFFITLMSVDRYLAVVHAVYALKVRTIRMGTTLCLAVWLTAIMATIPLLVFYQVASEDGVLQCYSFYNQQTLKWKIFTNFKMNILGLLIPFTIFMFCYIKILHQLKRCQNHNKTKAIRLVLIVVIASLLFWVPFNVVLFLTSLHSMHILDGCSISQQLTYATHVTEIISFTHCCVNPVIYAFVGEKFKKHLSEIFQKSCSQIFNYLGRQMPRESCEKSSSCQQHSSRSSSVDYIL

Compound	delta pIC50 wt-mutant [1]	delta pIC50 wt-mutant [2]	delta pIC50 wt-mutant [3]	delta pIC50 wt-mutant [4]	delta pIC50 wt-mutant [5]	delta pIC50 wt-mutant [6]	delta pIC50 wt-mutant [7]	delta pIC50 wt-mutant [8]	logD [9]	IC50 [10]	IC50 [11]	IC50 [12]
CC1Cc2cccc(CN3CCC4(CC3)CCN(C(=O)c3ccncc3)CC4)c2O1 (stereo not drawn)	0.61	-0.12	1.63	-0.21	1.04	1.41	-0.58	0.24	–	–	–	–
CC1(C)CCc2cc(CN3CCC4(CC3)CCN(C(=O)c3ccncn3)CC4)ccc2O1	0.74	-0.39	0.82	0.11	-0.3	0.46	-0.14	0.39	0.9	11200 nM	1820 nM	–
CC1(C)C=Cc2cccc(CN3CCC4(CC3)CCN(C(=O)c3ccnc(N)c3)CC4)c2O1	0.48	-0.62	0.93	0.04	0.37	1.32	-0.75	0.2	1.5	–	5.62 nM	–
CC1(C)Cc2cccc(CN3CCC4(CC3)CCN(C(=O)c3ccc(N)cn3)CC4)c2O1	0.82	-0.05	0.83	0.35	-0.31	0.51	-0.99	0.22	1	43700 nM	2.63 nM	37200 nM
O=C(c1ccncc1)N1CCC2(CCN(Cc3cccc4c3OCC4)CC2)CC1	–	–	–	–	–	–	–	–	0.3	–	1480 nM	–
COc1ccccc1Oc1ccccc1CN1CCC2(CC1)CCN(C(=O)c1ccncn1)CC2	–	–	–	–	–	–	–	–	1.2	–	14.8 nM	–
COc1ccccc1Oc1cccc(CN2CCC3(CC2)CCN(C(=O)c2ccncn2)CC3)c1	0.67	-0.3	0.98	-0.29	-0.2	0.58	-0.15	0.44	1.7	1910 nM	4.9 nM	–
CC1(C)Oc2c(CN3CCC4(CC3)CCN(C(=O)c3ccc(N)cn3)CC4)cccc2C1(F)F	0.36	-0.62	0.87	0.02	-0.49	-0.17	-1.07	0.01	2.3	30900 nM	2.63 nM	47900 nM
O=C(c1ccncc1)N1CCC2(CCN(Cc3ccccc3OC(F)(F)C(F)F)CC2)CC1	0.11	-0.08	1	-0.32	0.48	1.42	-0.54	0.06	2.8	5130 nM	525 nM	17000 nM
CC1(C)Cc2c(CN3CCC4(CC3)CCN(C(=O)c3ccncc3)CC4)cccc2O1	–	–	–	–	–	–	–	–	1.6	7080 nM	30.9 nM	30200 nM
COc1ccccc1Oc1ccccc1CN1CCC2(CC1)CCN(C(=O)c1ccc[nH]c1=O)CC2	0.54	0.24	1.19	0.35	0.22	1.92	-0.18	0.51	0.9	14100 nM	55 nM	2000 nM
CC1(C)Oc2cccc(CN3CCC4(CC3)CCN(C(=O)c3ccnc(N)c3)CC4)c2O1	0.59	-0.33	1.22	-0.19	0.62	1.37	-0.39	-0.06	1.2	16600 nM	6.61 nM	759 nM
